These results are taken from patent US8728797B2, “Yeast membrane protein expression system and its application in drug screening” (priority 2001, dated 2014).

Converted amounts (≈) assume the structure as drawn.

Assay [1] addresses T1, Cdr1p ATPase (Candida albicans, UniProt P43071, E1416A/I916V/K1177E/L1021S/Q214E/T842S/Y427F).
T1 construct: expressed in transfected cells; host or cells: S. cerevisiae AD1-8u- with pKEN1002 integrated at the PDR5 locus (strain AD1002), plasma membrane fraction
Briefly: Oligomycin sensitive ATPase/NTPase activity of AD1002 plasma membranes. It counts as biochemical, C. albicans. Here is the method: Membrane fractions were isolated from S. cerevisiae AD1002 (▪) or parental AD1-8u^− cells (●). ATPase assays were carried out at 30° C. for 30 min, as described in Materials and methods for Example 2. The oligomycin-sensitive activity was determined as the difference in ATPase activity in the presence and absence of 20 μM oligomycin. […] The results are the means (+/−SD) of four determinations carried out on two membrane preparations.
(B) Inhibition profile with KN20 on the oligomycin-sensitive Cdr1p ATPase activity of plasma membranes from AD1002 minus the oligomycin-sensitive ATPase activity of plasma membranes from the isogenic AD1-8u^− strain.
(§1) Yeast were grown in YEPD, pH 5.5 at 30° C. until they reached late-exponential phase of growth (OD600 nm=7), washed twice in ice-cold distilled water, and incubated on ice for 30 min to minimize glucose-stimulated Pma1p activity. Cells were resuspended in homogenising medium (50 mM Tris pH 7.5, 2 mM EDTA and 1 mM phenylmethylsulfonyl fluoride) and disrupted using a Braun Homogeniser. Cell debris and unbroken cells were removed by centrifuging at 2,000×g at 4° C. for 10 min. A crude membrane fraction was isolated from the cell-free supernatant by centrifuging at 30,000×g at 4° C. for 45 min. Plasma membranes were prepared by centrifugation of the supernatant obtained after selective precipitation of mitochondria at pH 5.2 as described previously (Goffeau, A. and Dufour, J. P., 1988). The plasma membranes were resuspended in 10 mM Tris pH 7.0, 0.5 mM EDTA and 20% [v/v] glycerol and stored at −80° C. Protein was determined using a micro-Bradford (Bio-Rad Laboratories, Hercules, Calif. [Bradford, M. M., 1976]) assay with gamma-globulin as standard. Nucleotide triphosphatase activity was measured by incubating the plasma membrane fractions (10 μg) at 30° C. in a final volume of 120 μl containing 6 mM NTP, 7 mM MgSO4 in 59 mM MES-Tris buffer pH 6.0-8.0. To eliminate possible contributions from nonspecific phosphatases, vacuolar, or mitochondrial ATPases, 0.2 mM ammonium molybdate, 50 mM KNO3 and 10 mM NaN3, respectively, were included in assays (Monk B C, et al, 1991). Other ATPase inhibitors (20 μM oligomycin, 20 μM aurovertin B or 100 μM vanadate were added to the reaction where indicated. After 30 min the reaction was stopped by adding 130 μl of a solution containing 1% (w/v) SDS, 0.6 M H2SO4, 1.2% (w/v) ammonium molybdate and 1.6% (w/v) ascorbic acid. Inorganic phosphate released from NTPs was measured at 750 nm after 10 min incubation at room temperature.

For assay [2], the system named is S. cerevisiae AD1-8u^− (CDR1−). Briefly: Disk drug susceptibility assay, parental strain. The format is cell-based. Conditions: at the concentrations used; 30° C., 48 h. Here is the method: S. cerevisiae AD1-8u^− (CDR1−) or AD1002 (CDR1+) cells (5×10^5) seeded in top agar on CSM agar plates (containing uracil for AD1-8u^−) were exposed to drugs or chemicals applied to filter disks and incubated at 30° C. for 48 h. The sensitivity of AD1002 to drugs or chemicals was unaffected by supplementing the medium with uridine (0.02% w/v). Amounts of individual drugs applied to disks are given in the Materials and methods section of Example 2, below.
Drug susceptibility was measured using disk assays on CSM-URA plates (containing 1.5% w/v agar). Plates were seeded with yeast cells suspended in top agar (5 ml, 10^5 cells/ml). For the uracil-dependent parental strain, agar was supplemented with 0.02% uridine. Five microliters of drug solution or solvent control were spotted onto sterile Whatman paper disks on the top agar. The following amounts (nmoles) of drugs were applied to individual disks: fluconazole, 6.5 (Pfizer Ltd., Sandwich, Kent, United Kingdom); ketoconazole, 0.094 (Janssen Research Foundation, Beerse, Belgium); itraconazole, 0.35 (Janssen); miconazole, 0.084 (Janssen); amphotericin B, 54 (E. R. Squibb & Sons, Princeton, N.J.); rhodamine 6G, 10 (Sigma, Penrose, Auckland, N. Z.); rhodamine 123, 50 (Sigma); trifluoperazine 100 (Sigma); benomyl, 10 (Nippon Roche); cycloheximide, 5 (Sigma); carbonyl cyanide p-chlorophenylhydrazone, 490 (CCCP, Sigma); oligomycin, 10 (Sigma); nigericin, 100 (Sigma); tamoxifen, 25 (Sigma); naftifine, 50 (Novartis); quinidine, 500 (Sigma); valinomycin, 20 (Sigma); verapamil, 1000 (Sigma). Agar plates were incubated at 30° C. for 48 h or until clear growth inhibition zones were visible.

The test system of assay [3] is S. cerevisiae AD1-8u^−. Description: MIC microdilution test, parental strain. The note with it: Saccharomyces cerevisiae; AD1-8u^− parental strain; 30° C., 48 h, pH 7.0. It counts as cell-based. Here is the method: (§2) The MICs of antifungal agents for S. cerevisiae cells were determined by a microdilution test based on the macrodilution reference method of the National Committee for Clinical Laboratory Standards. Cells (10 μl cell suspension, 2×10^5 cells/ml) were inoculated into 90 μl CSM-URA, buffered with 10 mM 2-(N-morpholino)ethanesulfonic acid (MES) and 18 mM N-2-hydroxyethylpiperazine-N′-2-ethanesulfonic acid (HEPES), pH 7.0 and containing 0.67% (w/v) yeast nitrogen base (YNB) in microtitre plate wells. For the uracil-requiring strain AD1-8u^− the medium was supplemented with 0.02% (w/v) uridine. The wells contained, in […], doubling dilutions of antifungal agents (final concentrations: fluconazole, 40-0.078 μg/ml; itraconazole and ketoconazole, 8-0.016 μg/ml). The microtitre plates were incubated at 30° C. for 48 h with shaking and then the growth of cells in individual wells (OD590) was measured with a microplate reader (EL 340, Bio-Tek, Winooski, Vt.). The MIC80 was the lowest concentration of drug that inhibited growth yield by at least 80% compared to a no-drug control.
For orientation: In broth dilution the organism is exposed to a series of concentrations in liquid medium.

The subject of assay [4] is S. cerevisiae AD1-8/CDR2. Briefly: MIC microdilution test, strain expressing Cdr2p. The format is cell-based. Conditions: Saccharomyces cerevisiae, AD18/CDR2, 30° C. Here is the method:
as §2

For assay [5], the system named is S. cerevisiae AD1002 expressing C. albicans Cdr1p. Briefly: MIC microdilution test, strain expressing Cdr1p. The format is cell-based. Conditions: for MIC80: AD1002 expressing Cdr1p, 30° C., 48 h, pH 7.0; for fold increase in MIC: AD1002 relative to parental AD1-8u^−. Here is the method:
as §2

Assay [6] relates to AD124567 (Pdr5p-overexpressing). Briefly: Disk drug susceptibility assay of chemosensitisation to fluconazole. The format is cell-based, S. cerevisiae. Conditions: 120 μg/ml fluconazole, 47 nanomole peptide on disk. Here is the method:
(A) Checkerboard drug susceptibility assay of AD124567 in the presence of the indicated concentrations of fluconazole and KN20. (B) Disk drug susceptibility assay of AD124567. This assay was conducted, as described in Materials and methods for example 4, in the absence or presence of fluconazole (120 μg/ml), and in the presence of (1) KN0 (47 nanomole), (2) KN20 (47 nanomole) or (0) control amounts of DMSO applied to disks
(§3) Drug susceptibility was measured using disk assays on CSM-URA plates (containing 1.5% w/v agar). Plates were seeded with yeast cells suspended in top agar (5 ml, 10^5 cells/ml). For the uracil-dependent parental strain, agar was supplemented with 0.02% uridine. Five microliters of drug solution or solvent control were spotted onto sterile Whatman paper disks on the top agar. […]

For assay [7], the system named is AD1002. Described as above. It counts as cell-based, S. cerevisiae. The note with it: 5 μg/ml fluconazole, 12 nanomole peptide on disk. Here is the method:
(A) Checkerboard drug susceptibility assay of AD1002. This assay was conducted as described in Materials and methods in the presence of the indicated concentrations of fluconazole and KN20. (B) Disk drug susceptibility assay of AD1002. This assay was conducted, as described in Materials and methods for Example 4, in the absence or presence of 5 μg/ml fluconazole, with (1) KN0 (12 nanomole), (2) KN20 (12 nanomole) or (0) control amounts of DMSO applied to the disks. (C) Checkerboard drug susceptibility assay of ATCC 10261. This assay was conducted, as described in Material and methods for Example 4, in the presence of the indicated concentrations of fluconazole and KN20. D indicates cell death as measured by a failure to recover any colony forming units when samples from microtitre plate wells were cultured on solid YPD medium.
as §3

The target of assay [8] is T2, Pdr5p ATPase (Saccharomyces cerevisiae, UniProt P33302).
T2 construct: plasma membranes from the AD124567 yeast strain overexpressing Pdr5p; endogenous in cells; host or cells: S. cerevisiae AD124567 (pdr1-3, PDR5 intact), plasma membrane fraction
Description: Oligomycin sensitive ATPase activity of AD124567 plasma membranes. The format is biochemical, S. cerevisiae. The note with it: in vitro. Here is the method: (A) Inhibition profiles of oligomycin-sensitive Pdr5p ATPase activity by the purified peptides D-NH2-asparagine-tryptophan-tryptophan-lysine-valine-arginine-arginine-arginine-CONH2 (KN0) and its singly substituted Mtr-derivative KN20. (B) Inhibition profile with KN20 on the oligomycin-sensitive Cdr1p ATPase activity of plasma membranes from AD1002 minus the oligomycin-sensitive ATPase activity of plasma membranes from the isogenic AD1-8u^− strain.
as §1, with “The plasma membranes were resuspended in 10 mM Tris pH 7.0, 0.5 mM EDTA and 20% [v/v] glycerol and stored at −80° C.” left out, “To eliminate possible contributions from nonspecific phosphatases, vacuolar, or mitochondrial ATPases, 0.2 mM ammonium molybdate, 50 mM KNO3 and 10 mM NaN3, respectively, were included in assays (Monk B C, et al, 1991).” left out

T1 sequence (P43071 whole entry Q214E/Y427F/T842S/I916V/L1021S/K1177E/E1416A): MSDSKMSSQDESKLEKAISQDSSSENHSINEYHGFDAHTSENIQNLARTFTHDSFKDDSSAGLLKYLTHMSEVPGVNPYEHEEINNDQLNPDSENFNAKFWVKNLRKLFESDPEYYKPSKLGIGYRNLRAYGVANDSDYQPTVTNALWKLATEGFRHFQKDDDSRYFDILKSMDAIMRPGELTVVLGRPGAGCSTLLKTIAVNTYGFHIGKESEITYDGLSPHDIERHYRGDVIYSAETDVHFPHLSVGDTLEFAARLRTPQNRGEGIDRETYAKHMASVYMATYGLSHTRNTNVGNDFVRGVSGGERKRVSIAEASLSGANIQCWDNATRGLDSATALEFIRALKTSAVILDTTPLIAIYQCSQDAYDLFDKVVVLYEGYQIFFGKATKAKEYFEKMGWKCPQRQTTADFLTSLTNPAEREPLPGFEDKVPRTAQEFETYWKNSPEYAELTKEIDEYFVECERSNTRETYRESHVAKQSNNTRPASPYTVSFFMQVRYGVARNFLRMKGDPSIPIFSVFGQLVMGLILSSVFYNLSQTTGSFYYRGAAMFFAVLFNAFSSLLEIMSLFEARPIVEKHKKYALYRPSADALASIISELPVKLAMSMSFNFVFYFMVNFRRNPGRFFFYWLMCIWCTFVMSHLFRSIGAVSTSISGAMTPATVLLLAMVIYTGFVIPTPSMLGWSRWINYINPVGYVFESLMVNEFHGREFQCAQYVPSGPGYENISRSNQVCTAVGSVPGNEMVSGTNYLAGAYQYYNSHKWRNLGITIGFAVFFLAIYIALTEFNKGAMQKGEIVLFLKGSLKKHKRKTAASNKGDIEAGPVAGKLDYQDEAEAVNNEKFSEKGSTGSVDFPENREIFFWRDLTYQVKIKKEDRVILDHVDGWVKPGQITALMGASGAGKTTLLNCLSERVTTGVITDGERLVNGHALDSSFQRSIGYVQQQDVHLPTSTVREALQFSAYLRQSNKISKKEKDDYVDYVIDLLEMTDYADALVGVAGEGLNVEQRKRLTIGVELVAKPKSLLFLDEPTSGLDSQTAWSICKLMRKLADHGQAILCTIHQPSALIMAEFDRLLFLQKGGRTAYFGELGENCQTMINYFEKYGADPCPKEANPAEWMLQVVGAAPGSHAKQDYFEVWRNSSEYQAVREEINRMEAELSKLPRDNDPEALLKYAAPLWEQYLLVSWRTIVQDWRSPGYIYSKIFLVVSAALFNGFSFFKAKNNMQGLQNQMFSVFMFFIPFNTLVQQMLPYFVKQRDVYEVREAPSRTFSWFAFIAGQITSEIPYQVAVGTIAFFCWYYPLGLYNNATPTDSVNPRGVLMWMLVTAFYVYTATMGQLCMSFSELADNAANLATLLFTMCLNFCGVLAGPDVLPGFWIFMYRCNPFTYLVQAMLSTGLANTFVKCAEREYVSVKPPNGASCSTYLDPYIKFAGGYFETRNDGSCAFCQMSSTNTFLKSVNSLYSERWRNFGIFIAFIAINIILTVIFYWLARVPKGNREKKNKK
T2 sequence (P33302 whole entry): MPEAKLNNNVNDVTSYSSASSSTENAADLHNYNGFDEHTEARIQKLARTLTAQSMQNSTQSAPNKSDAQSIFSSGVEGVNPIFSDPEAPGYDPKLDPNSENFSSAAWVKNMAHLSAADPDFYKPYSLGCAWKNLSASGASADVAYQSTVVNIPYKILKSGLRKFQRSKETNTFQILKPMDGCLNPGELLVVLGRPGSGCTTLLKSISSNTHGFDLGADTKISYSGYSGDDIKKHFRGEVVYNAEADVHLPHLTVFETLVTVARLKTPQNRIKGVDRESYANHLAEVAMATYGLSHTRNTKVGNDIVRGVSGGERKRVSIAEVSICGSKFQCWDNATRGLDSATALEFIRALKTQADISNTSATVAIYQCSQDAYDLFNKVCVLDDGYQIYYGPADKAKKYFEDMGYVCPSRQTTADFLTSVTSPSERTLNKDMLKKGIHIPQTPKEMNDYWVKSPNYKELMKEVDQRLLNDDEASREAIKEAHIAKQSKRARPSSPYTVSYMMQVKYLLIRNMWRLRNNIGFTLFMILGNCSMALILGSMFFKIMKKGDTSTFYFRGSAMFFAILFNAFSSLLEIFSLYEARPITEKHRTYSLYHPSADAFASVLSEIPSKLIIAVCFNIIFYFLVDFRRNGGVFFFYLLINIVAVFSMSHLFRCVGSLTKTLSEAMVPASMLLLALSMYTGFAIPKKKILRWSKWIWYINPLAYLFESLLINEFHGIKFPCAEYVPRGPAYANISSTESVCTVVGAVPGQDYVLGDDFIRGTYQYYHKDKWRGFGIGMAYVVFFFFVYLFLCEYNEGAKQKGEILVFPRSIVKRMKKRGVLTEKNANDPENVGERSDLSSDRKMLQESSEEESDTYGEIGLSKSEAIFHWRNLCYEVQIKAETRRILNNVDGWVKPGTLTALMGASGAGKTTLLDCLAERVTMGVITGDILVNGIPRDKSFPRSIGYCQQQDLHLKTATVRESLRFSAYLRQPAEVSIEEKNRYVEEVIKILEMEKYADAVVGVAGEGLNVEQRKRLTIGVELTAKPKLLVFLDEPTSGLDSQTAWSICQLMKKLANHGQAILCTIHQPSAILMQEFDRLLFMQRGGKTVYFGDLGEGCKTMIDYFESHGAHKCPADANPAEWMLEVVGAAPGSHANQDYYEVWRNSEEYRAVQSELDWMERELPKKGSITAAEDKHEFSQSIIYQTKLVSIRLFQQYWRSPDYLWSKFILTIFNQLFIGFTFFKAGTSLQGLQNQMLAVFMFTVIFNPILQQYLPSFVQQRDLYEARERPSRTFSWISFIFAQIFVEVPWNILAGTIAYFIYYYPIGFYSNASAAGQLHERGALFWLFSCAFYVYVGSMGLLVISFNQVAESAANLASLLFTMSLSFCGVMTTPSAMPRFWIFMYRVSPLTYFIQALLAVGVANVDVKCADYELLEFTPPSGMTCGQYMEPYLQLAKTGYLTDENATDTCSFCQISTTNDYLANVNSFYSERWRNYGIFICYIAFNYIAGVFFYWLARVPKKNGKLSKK

On to `CC[C@H]1O[C@]2(C)[C@H](OC(C)=O)[C@@]1(C)O[C@@H](/C=C/C=C/C=C/c1oc(=O)cc(OC)c1C)[C@@H]2O` [aurovertin B], for which, in assay [1] (aurovertin B 20 μM), the “sensitivity of AD1002 ATPase/NTPase activity to inhibitor” value is “insensitive”.

As to `CCCCNC(=O)n1c(NC(=O)OC)nc2ccccc21` [benomyl], the “sensitivity of parental strain AD1-8u^− in disk assay” value (“sensitivity … in disk assay” for short) in assay [2] is “resistant”.

As for `CCC(C)n1ncn(-c2ccc(N3CCN(c4ccc(OCC5COC(Cn6cncn6)(c6ccc(Cl)cc6Cl)O5)cc4)CC3)cc2)c1=O` (centres unmarked) [itraconazole], the MIC80 in assay [3] was less than 0.016 µg/mL; in assay [4] it was 1 µg/mL (≈ 1.42 µM); in assay [5], 4 µg/mL (≈ 5.67 µM). Further, in assay [5], the “fold increase in MIC” value is more than 250 fold.

Take `CC(=O)N1CCN(c2ccc(OCC3COC(Cn4ccnc4)(c4ccc(Cl)cc4Cl)O3)cc2)CC1` (centres unmarked) [ketoconazole]: the MIC80 is less than 0.016 µg/mL in assay [3], 2 µg/mL (≈ 3.76 µM) in assay [4] and 0.5 µg/mL (≈ 0.941 µM) in assay [5]. The “fold increase in MIC” value in assay [5] is listed as more than 31 fold.

In the case of `CC[C@H]1/C=C/C=C/C[C@@H](C)[C@H](O)[C@@](C)(O)C(=O)[C@@H](C)[C@H](O)[C@@H](C)C(=O)[C@@H](C)[C@H](O)[C@@H](C)/C=C/C(=O)O[C@@H]2[C@H](C)[C@H](CC1)O[C@]1(CC[C@H](C)[C@H](C[C@@H](C)O)O1)[C@H]2C` [oligomycin], the “sensitivity … in disk assay” value in assay [2] is “resistant”.

For the compound `C=C[C@H]1C[N@@]2CC[C@H]1C[C@@H]2[C@@H](O)c1ccnc2ccc(OC)cc12` [quinidine], the “sensitivity … in disk assay” value in assay [2] was “resistant”.

Consider `CC(C)[C@@H]1NC(=O)[C@H](C)OC(=O)[C@@H](C(C)C)NC(=O)[C@@H](C(C)C)OC(=O)[C@H](C(C)C)NC(=O)[C@H](C)OC(=O)[C@@H](C(C)C)NC(=O)[C@@H](C(C)C)OC(=O)[C@H](C(C)C)NC(=O)[C@H](C)OC(=O)[C@@H](C(C)C)NC(=O)[C@@H](C(C)C)OC1=O` [valinomycin], for which the “sensitivity … in disk assay” value in assay [2] is on record as “resistant”.

As for `[O]=[V]([O-])([O-])[O-]` [vanadate], in assay [1] (vanadate 100 μM), the “sensitivity of AD1002 ATPase/NTPase activity to inhibitor” value is on record as “completely sensitive”.

In the case of “D-NH2-asparagine-tryptophan-tryptophan-lysine-valine-arginine-arginine-arginine-CONH2 [KN0]”, the “chemosensitisation to fluconazole in disk assay” value in assay [6] and in assay [7] was “ineffective at chemosensitisation” throughout. The “effect on oligomycin sensitive Pdr5p ATPase activity” value in assay [8] is “ineffective”.

What is called MIC80 is the lowest concentration that inhibits either 80% of growth or 80% of the strains tested, depending on the study.
